Measured values published in patent US7332476B2, “Pyridyl substituted ketolide antibiotics” (Novartis AG, priority 2003, dated 2008).

Assays:
Assay in all cases: MIC, broth microdilution (NCCLS)
Type in all cases: cell-based
[1] = tested on: Streptococcus pyogenes Stpy_8668
Procedure: (§1) Strains. The bacterial isolates listed in Table 4 were cultivated from −70° C. frozen stocks by two consecutive overnight passages (P1, P2) at 35° C. on 5% blood agar (Remel, Lenexa, Kans.). Chocolate agar (Remel) is used for Haemophilus influenzae. H. influenzae and Streptococcus pneumoniae are incubated in 5-10% CO2
(§2) Drug Stock Preparation. To determine the amount of solvent to be used to give the desired final concentration, the formula “weight obtained in mg/final concentration in mg/ml” will be used. It will give the amount of solvent in ml needed to be added to give the desired concentration. For example, if 2.5 mg/ml is the desired concentration and the weight of compound is 13.7 mg, then the amount of solvent to be added is […]. Methanol is used as the solvent to dissolve the test compounds. Further dilution of stock is done in sterile, deionized water. Drug stocks are kept frozen at −70° C., protected from light.
(§3) Susceptibility Testing. MICs are determined by the broth microdilution method in accordance with the NCCLS guidelines. In brief, organism suspensions are adjusted to a 0.5 McFarland standard to yield a final inoculum between 3×10^5 and 7×10^5 CFU/ml. Drug dilutions and inocula are made in sterile, cation adjusted Mueller-Hinton Broth (CAMHB) (Remel) for all but S. pneumoniae [CAMHB with 2-5% lysed horse blood (Remel)] and H. influenzae [Haemophilus Test Medium (Remel)]. An inoculum volume of 100 μl is added to wells containing 100 μl of broth with 2-fold serial dilutions of drug. All inoculated microdilution trays are incubated in ambient air at 35° C. for 18-24 hours, except for S. pneumoniae, and H. influenzae (both at 5-10% CO2).
(§4) Following appropriate incubation, the MIC is determined and the MIC is defined as the lowest concentration of the drug that prevented visible growth.
as §1, with “8” for “4”
(§5) Following appropriate incubation, the MIC is determined and the MIC is defined as the lowest concentration of the drug that prevented visible growth. […] Antibacterial activity of representative compounds of the invention were compared against telitromycin.

[2] = tested on: Streptococcus pneumoniae Stpn_Mef S 3427; settings: Table 7, Strain ID L (Table 6): S. pneumoniae Stpn_Mef S 3427
Procedure: as §1, §2, §3, §4
as §1, with “8” for “4”
as §5

[3] = tested on: Haemophilus influenzae Hain_49247; settings: Table 7, Strain ID M (Table 6): H. influenzae Hain_49247; unit assumed
Procedure: as §1, §2, §3, §4
as §1, with “8” for “4”
as §5

[4] = tested on: Streptococcus pneumoniae Stpn_Erm S 4297; settings: Table 7, Strain ID J (Table 6): S. pneumoniae Stpn_Erm S 4297
Procedure: as §1, §2, §3, §4
as §1, with “8” for “4”
as §5

[5] = tested on: Enterococcus faecalis Enfa_29212; settings: Table 7, Strain ID D (Table 6): E. faecalis Enfa_29212; in µg/mL (unit assumed)
Procedure: as §1, §2, §3, §4
as §1, with “8” for “4”
as §5

[6] = tested on: Staphylococcus epidermidis Step_14990; settings: Table 7, Strain ID B (Table 6): S. epidermidis Step_14990; in µg/mL (unit assumed)
Procedure: as §1, §2, §3, §4
as §1, with “8” for “4”
as §5

[7] = tested on: Streptococcus pneumoniae Stpn_280-962
Procedure: as §1, §2, §3, §4
as §1, with “8” for “4”
as §5

[8] = tested on: Streptococcus pneumoniae Stpn_49619
Procedure: as §1, §2, §3, §4
as §1, with “8” for “4”
as §5

[9] = tested on: Streptococcus pneumoniae Stpn_297-749
Procedure: as §1, §2, §3, §4
as §1, with “8” for “4”
as §5

[10] = Table 7, Strain ID E (Table 6): S. pyogenes Stpy_8668
[11] = Table 7, Strain ID H (Table 6): S. pneumoniae Stpn_280-962
[12] = Table 7, Strain ID F (Table 6): S. pneumoniae Stpn_49619
[13] = Table 7, Strain ID G (Table 6): S. pneumoniae Stpn_297-749

Measured: MIC

CC[C@H]1OC(=O)[C@H](C)C(=O)[C@H](C)[C@@H](OC2O[C@H](C)C[C@H](N(C)C)[C@H]2O)[C@@](C)(OC)C[C@@H](C)C(=O)[C@H](C)[C@H]2N(CCCCc3ccnc4ccccc34)C(=O)O[C@]12CC (stereo partly drawn) [Example 15, (3aS,4R,7R,9R,10R,11S,13R,15R,15aR)-3a,4-DIETHYL-11-METHOXY-7,9,11,13,15-PENTAMETHYL-2,6,8,14-TETRAOXO-1-(4-QUINOLIN-4-YLBUTYL)TETRADECAHYDRO-2H-OXACYCLOTETRADECINO[4,3-D][1,3]OXAZOL-10-YL-3,4,6-TRIDEOXY-3-(DIMETHYLAMINO)-D-XYLO-HEXOPYRANOSIDE]
0.1: [5]
0.2: [6]
0.1 µg/mL: [4]; unit assumed
=0.05: [1]; [10] | [2] | [7]; [11] | [8]; [12] | [9]; [13]
3.13 µg/mL: [3]

CC[C@H]1OC(=O)[C@H](C)C(=O)[C@H](C)[C@@H](OC2O[C@H](C)C[C@H](N(C)C)[C@H]2O)[C@@](C)(OC)C[C@@H](C)C(=O)[C@H](C)[C@H]2N(CCCCn3cnc4cccnc43)C(=O)O[C@]12CC (stereo partly drawn) [Example 14, (3aS,4R,7R,9R,10R,11S,13R,15R,15aR)-3a,4-DIETHYL-1-[4-(3H-IMIDAZO[4,5-B]PYRIDIN-3-YL)BUTYL]-11-METHOXY-7,9,11,13,15-PENTAMETHYL-2,6,8,14-TETRAOXOTETRADECAHYDRO-2H-OXACYCLOTETRADECINO[4,3-D][1,3]OXAZOL-10-YL-3,4,6-TRIDEOXY-3-(DIMETHYLAMINO)-D-XYLO-HEXOPYRANOSIDE]
=0.05: [1]; [10] | [2] | [7]; [11] | [8]; [12] | [9]; [13]

C=C[C@]12OC(=O)N(CCCC(C)(C)n3cnc(-c4cccnc4)c3)[C@@H]1[C@@H](C)C(=O)[C@H](C)C[C@](C)(OC)[C@H](OC1O[C@H](C)C[C@H](N(C)C)[C@H]1O)[C@@H](C)C(=O)[C@@H](C)C(=O)O[C@@H]2CC (stereo partly drawn) [Example 50, (3aS,4R,7R,9R,10R,11S,13R,15R,15aR)-4-ethyl-11-methoxy-7,9,11,13,15-pentamethyl-1-[4-methyl-4-(4-pyridin-3-yl-1H-imidazol-1-yl)pentyl]-2,6,8,14-tetraoxo-3a-vinyltetradecahydro-1H-oxacyclotetradecino[4,3-d][1,3]oxazol-10-yl-3,4,6-trideoxy-3-(dimethylamino)-D-xylo-hexopyranoside]
=0.05: [1]; [10] | [4] | [7]; [11] | [8]; [12] | [9]; [13]

CC[C@H]1OC(=O)[C@@](C)(F)C(=O)[C@H](C)[C@@H](OC2O[C@H](C)C[C@H](N(C)C)[C@H]2O)[C@@](C)(OC)C[C@@H](C)C(=O)[C@H](C)[C@H]2N(CCCC(C)(C)n3cnc(-c4cccnc4)c3)C(=O)O[C@]12CC (stereo partly drawn) [Example 32, (3aS,4R,7S,9R,10R,11S,13R,15R,15aR)-3a,4-diethyl-7-fluoro-11-methoxy-7,9,11,13,15-pentamethyl-1-[4-methyl-4-(4-pyridin-3-yl-1H-imidazol-1-yl)pentyl]-2,6,8,14-tetraoxotetradecahydro-2H-oxacyclotetradecino[4,3-d][1,3]oxazol-10-yl-3,4,6-trideoxy-3-(dimethylamino)-D-xylo-hexopyranoside]
=0.05: [1]; [10] | [4] | [7]; [11] | [8]; [12] | [9]; [13]

CC[C@H]1OC(=O)[C@H](C)C(=O)[C@H](C)[C@@H](OC2O[C@H](C)C[C@H](N(C)C)[C@H]2O)[C@@](C)(OC)C[C@@H](C)C(=O)[C@H](C)[C@H]2N(CCCCc3ccc4ccccc4n3)C(=O)O[C@]12CC (stereo partly drawn) [Example 18, (3aS,4R,7R,9R,10R,11S,13R,15R,15aR)-3a,4-diethyl-11-methoxy-7,9,11,13,15-pentamethyl-2,6,8,14-tetraoxo-1-(4-quinolin-2-ylbutyl)tetradecahydro-2H-oxacyclotetradecino[4,3-d][1,3]oxazol-10-yl-3,4,6-trideoxy-3-(dimethylamino)-D-xylo-hexopyranoside]
=0.05: [2] | [7]; [11] | [8]; [12] | [9]; [13]

CC[C@H]1OC(=O)[C@H](C)[C@@H](O[C@H]2C[C@@](C)(OC)[C@@H](O)[C@H](C)O2)[C@H](C)[C@@H](O[C@@H]2O[C@H](C)C[C@H](N(C)C)[C@H]2O)[C@](C)(OC)C[C@@H](C)C(=O)[C@H](C)[C@@H](O)[C@]1(C)O [Clar., clarithromycin, reference compound]
=0.05: [1]; Table 5, Strain ID D (Table 4): S. pyogenes Stpy_8668 | [7]; Table 5, Strain ID G (Table 4): S. pneumoniae Stpn_280-962 Pen S | [8]; Table 5, Strain ID E (Table 4): S. pneumoniae Stpn_49619 | [9]; Table 5, Strain ID F (Table 4): S. pneumoniae Stpn_297-749 Pen R

CC[C@H]1OC(=O)[C@H](C)C(=O)[C@H](C)[C@@H](OC2O[C@H](C)C[C@H](N(C)C)[C@H]2O)[C@@](C)(OC)C[C@@H](C)C(=O)[C@H](C)[C@H]2N(CCCC(C)(C)n3cnc4ncccc43)C(=O)O[C@]12CC (stereo partly drawn) [Example 37, (3aS,4R,7R,9R,10R,11S,13R,15R,15aR)-3a,4-diethyl-1-[4-(1H-imidazo[4,5-b]pyridin-1-yl)-4-methylpentyl]-11-methoxy-7,9,11,13,15-pentamethyl-2,6,8,14-tetraoxotetradecahydro-2H-oxacyclotetradecino[4,3-d][1,3]oxazol-10-yl-3,4,6-trideoxy-3-(dimethylamino)-D-xylo-hexopyranoside]
=0.05: [1]; [10] | [7]; [11] | [8]; [12] | [9]; [13]

CC[C@H]1OC(=O)[C@H](C)C(=O)[C@H](C)[C@@H](OC2O[C@H](C)C[C@H](N(C)C)[C@H]2O)[C@@](C)(OC)C[C@@H](C)C(=O)[C@H](C)[C@H]2N(CCCC(C)(C)n3cnc4cccnc43)C(=O)O[C@]12CC (stereo partly drawn) [Example 38, (3aS,4R,7R,9R,10R,11S,13R,15R,15aR)-3a,4-diethyl-1-[4-(3H-imidazo[4,5-b]pyridin-3-yl)-4-methylpentyl]-11-methoxy-7,9,11,13,15-pentamethyl-2,6,8,14-tetraoxotetradecahydro-2H-oxacyclotetradecino[4,3-d][1,3]oxazol-10-yl-3,4,6-trideoxy-3-(dimethylamino)-D-xylo-hexopyranoside]
=0.05: [1]; [10] | [7]; [11] | [8]; [12] | [9]; [13]

C=C[C@]12OC(=O)N(CCCCn3cnc(-c4cccnc4)c3)[C@@H]1[C@@H](C)C(=O)[C@H](C)C[C@](C)(OC)[C@H](OC1O[C@H](C)C[C@H](N(C)C)[C@H]1O)[C@@H](C)C(=O)[C@](C)(F)C(=O)O[C@@H]2CC (stereo partly drawn) [Example 49, (3aS,4R,7S,9R,10R,11S,13R,15R,15aR)-4-ethyl-7-fluoro-11-methoxy-7,9,11,13,15-pentamethyl-2,6,8,14-tetraoxo-1-[4-(4-pyridin-3-yl-1H-imidazol-1-yl)butyl]-3a-vinyltetradecahydro-1H-oxacyclotetradecino[4,3-d][1,3]oxazol-10-yl-3,4,6-trideoxy-3-(dimethylamino)-D-xylo-hexopyranoside]
=0.05: [1]; [10] | [2] | [4] | [7]; [11] | [8]; [12] | [9]; [13]
